Assay results reported in patent US20210046101A1, “COMBINATION THERAPEUTICS” (UCL BUSINESS LTD, priority 2018, published 2021).
Where a SMILES comes first, the peptide text is derived from it. The star is where a group is joined. Cbz = O=C(OCc1ccccc1)*; CH2F = FC*

How the values were obtained:
[1] = test system: PMKs derived from Hoip^E-KO mice; assay: Viability of primary murine keratinocytes (PMKs) from Hoip^E-KO mice cultured with inhibitors, CellTiter-Glo assay; format: cell-based, mouse; settings: no exogenous stimulus, cultured four days with 20 μM Z-VAD-fmk, 10 μM Necrostatin-1s or 1 μM RIPK3 inhibitor (FIG. 3e)
Description: FIG. 3. Aberrant apoptosis drives lethal dermatitis in Hoip^E-KO and Hoil-1^E-KO mice. a, Quantification of TUNEL and CC3 positive cells in skin sections from mice with the indicated genotypes (n=3 mice per genotype). Error bars represent mean values±s.e.m. *P≤0.05, **P≤0.01, ***P≤0.001. b, Representative images of skin sections from mice with the indicated genotypes (n=4) stained with antibody against CD45 (red) at P0. Nuclei were stained with DAPI (blue). White dashed lines separate the epidermis (above) from the dermis (below). Scale bar, 50 μm. c, Flow cytometry analysis of immune cells in skin samples from mice with the indicated genotypes at the indicated postnatal days. […] Lysates and IP were analysed by Western blotting for the indicated proteins. e, PMKs derived from Hoip^E-KO and control mice were cultured for four days in absence (NT: not-treated) or presence of the inhibitors Necrostatin-1s (N), ZVAD-fmk (Z) or RIPK3i. Cell viability (%) was measured by CellTiter-Glo assay on day four. […] CC3: cleaved Caspase-3. f, Cell viability (%) measured by CellTiter-Glo assay of PMKs derived from adult mice with the indicated genotypes. Results are expressed as mean values±SEM (n=8 mice per genotype). […] CC3: cleaved Caspase-3. i, Quantification of TUNEL and CC3 positive cells in skin sections from mice with the indicated genotypes (n=3 mice per genotype). […]

[2] = test system: PMKs derived from Tnfr1^KO;Hoil-1^E-KO mice; assay: Viability of PMKs from Tnfr1^KO;Hoil-1^E-KO mice after death ligand / Poly(I:C) stimulation, CellTiter-Glo assay; format: cell-based, mouse; settings: 24 hours; TRAIL 50 ng/ml, CD95L 50 ng/ml, Poly(I:C) 100 μg/ml; control = Tnfr1^KO PMKs with HOIL-1 (FIG. 4a)
Experimental: FIG. 4. CD95L- and TRAIL-induced cell death drives TNFR1-independent dermatitis. a, PMKs derived from adult mice with the indicated genotypes were treated or not for 24 hours with TRAIL [50 ng/ml], CD95L [50 ng/ml] and Poly(I:C) [100 μg/ml]. Cell viability (%) was measured by CellTiter-Glo assay. Results are expressed as mean values±SEM. (n=7 mice per genotype). **p≤0.01, ***p≤0.001, NS=not significant. Control mice represent a pool of Tnfr1^KO;Hoil-1^fl/fl;K14-Cre− and Tnfr1^KO;Hoil-1^fl/wt;K14-Cre+ mice b, Representative images of mice with the indicated genotypes. c, Severity score of dermatitis was assessed at P70 in mice with the indicated genotypes. The total score was determined by evaluating the regions of the body affected by the lesions (black) and the character of the lesion (white). Tnfr1^KO;Hoil-1^E-KO (n=6), Trail-r^KO;Tnfr1^KO;Hoil-1^E-KO (n=4), Tlr3^KO;Tnfr1^KO;Hoil-1^E-KO (n=4), Cd95^E-DD; Tnfr1^KO; Hoil-1^E-KO (n=12), Trail-r^KO; Tlr3^KO;Tnfr1^KO;Hoil-1^E-KO (n=20) and Cd95^E-DD;Trail-r^KO;Tnfr1^KO;Hoil-1^E-KO (n=19), Mlkl^KO;Tnfr1^KO;Hoip^E-KO (n=13). d, Kaplan-Meier survival curve of mice with the indicated genotypes. […]
Isolation, culture and viability of primary murine keratinocytes. […] On the last day, cell viability was measured using the CellTiter-Glo Luminescent Cell Viability Assay kit (Promega) following the manufacturers instructions. […]

## COC(=O)C[C@H](NC(=O)[C@H](C)NC(=O)[C@@H](NC(=O)OCc1ccccc1)C(C)C)C(=O)CF [ZVAD, Z-VAD-fmk] (Cbz-Val-Ala-Asp(OMe)-CH2F)
[1]
  loss in viability of HOIP-deficient PMKs (cell viability, CellTiter-Glo): prevented

## CN1C(=O)NC(Cc2c[nH]c3c(Cl)cccc23)C1=O (stereo not shown) [necrostatin-1s, Necrostatin-1s]
[1]
  loss in viability of HOIP-deficient PMKs (cell viability, CellTiter-Glo): prevented

## Polyinosinic:polycytidylic acid [Poly(I:C)]
[2]
  cell viability as compared to control PMKs (CellTiter-Glo): decreased cell viability

B1: TRAIL: TNF-related apoptosis-inducing ligand; used as mouse iz-TRAIL (protein, UniProt P50592 39-291, looked up)
extracellular domain: YMYFTNEMKQLQDNYSKIGLACFSKTDEDFWDSTDGEILNRPCLQVKRQLYQLIEEVTLRTFQDTISTVPEKQLSTPPLPRGGRPQKVAAHITGITRRSNSALIPISKDGKTLGQKIESWESSRKGHSFLNHVLFRNGELVIEQEGLYYIYSQTYFRFQEAEDASKMVSKDKVRTKQLVQYIYKYTSYPDPIVLMKSARNSCWSRDAEYGLYSIYQGGLFELKKNDRIFVSVTNEHLMDLDQEASFFGAFLIN
modifications: extracellular domain isoleucine zipper fusion
[2]
  cell viability as compared to control PMKs (CellTiter-Glo): decreased cell viability
